Test results as given in publication PMC6238539, “Discovery of a cofactor-independent inhibitor of Mycobacterium tuberculosis InhA” (Life Science Alliance, 2018).
Where two headings read alike, the source gives them in different places.

Legend:
in vitro [1] = type: cell-based; details: human; read-out: HepG2 cytotoxicity IC50
Procedure: HepG2 human liver cells (ATCC HB 8065) were propagated in DMEM containing either 25 mM glucose or 10 mM galactose plus 10% vol/vol FBS, 1 mM sodium pyruvate, 2 mM Corning glutagro, 100 U/ml penicillin, and 100 μg/ml streptomycin. The cells were seeded in 384-well plates at 1,800 cells per well and incubated in a humidified incubator at 37°C, 5% CO2. Compounds were solubilized in DMSO and assayed using a 10-point threefold serial dilution. Compounds were added 24 h post cell seeding to a final assay concentration of 1% DMSO and highest compound concentration of 100 μM. The cells were incubated for 72 h and viability measured using CellTiter-Glo reagent (Promega) and reading RLU. Growth inhibition curves were fitted using the Levenberg–Marquardt algorithm. The IC50 was defined as the compound concentration that produced 50% of the inhibitory response against HepG2 cells.

M. tuberculosis InhA [2] = target: T1, M. tuberculosis InhA (Mycobacterium tuberculosis, UniProt P9WGR1); test: InhA in vitro inhibition assay; type: biochemical
in vitro [3] = details: human
M. tuberculosis H37Rv [4] = test: microbe, parasite or virus in culture; type: cell-based, Mycobacterium tuberculosis; details: for IC90: Mycobacterium tuberculosis, H37RV, whole-cell M. tuberculosis
M. tuberculosis H37Rv [5] = test: Kill kinetics under replicating conditions; type: cell-based, Mycobacterium tuberculosis
[6] = test system: intracellular M. tuberculosis in THP-1 cells; test: microbe, parasite or virus in culture; type: cell-based; details: Mycobacterium tuberculosis
M. tuberculosis InhA [7] = target: T1, M. tuberculosis InhA; test: biochemical; type: binding
M. tuberculosis Erdman = type: in vivo, Mycobacterium tuberculosis; details: dose escalation study (Table S4), 25 mg/kg, day 22

T1 sequence (P9WGR1 whole entry, looked up): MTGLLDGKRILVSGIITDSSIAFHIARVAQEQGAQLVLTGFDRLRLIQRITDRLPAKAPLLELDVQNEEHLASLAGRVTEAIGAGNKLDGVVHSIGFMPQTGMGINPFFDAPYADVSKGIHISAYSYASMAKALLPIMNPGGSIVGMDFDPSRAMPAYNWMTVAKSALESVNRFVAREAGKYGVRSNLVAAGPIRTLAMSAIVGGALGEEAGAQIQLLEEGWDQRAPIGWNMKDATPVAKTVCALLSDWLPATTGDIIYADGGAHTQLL

With `CS(=O)(=O)N1N=Cc2ccc(Oc3ccc(C(F)(F)F)cc3/C=N/O)cc2B1O` [AN12541] as the compound, how does the IC50 (in vitro [1]) read?
Its IC50 is > 100 µM.

And the IC50 (M. tuberculosis InhA [2])?
The IC50 was 0.4 µM.

What about the “increase in potency against purified InhA” value (M. tuberculosis InhA [2]; versus AN6534) of the same compound?
The value was 190 fold.

What about the IC50 (in vitro [3]) of the same compound?
The IC50 was > 50 µM.

And the IC90 (M. tuberculosis H37Rv [4])?
Its IC90 is 0.11 ± 0.21 µM.

And the “increase in potency against M. tuberculosis” value (M. tuberculosis H37Rv [4]; versus AN6534)?
The value was 350 fold.

What about the bactericidal activity (M. tuberculosis H37Rv [5]) of the same compound?
The bactericidal activity was “similarly active”.

What about the IC50 [6] of the same compound?
Its IC50 is 0.046 ± 0.013 µM.

What about the IC90 [6] of the same compound?
The IC90 was 0.11 ± 0.01 µM.

Which IC50 (M. tuberculosis InhA [2]) does the source give for `CS(=O)(=O)N1N=Cc2ccc(Oc3ccc(C#N)cc3)cc2B1O` [AN6534] here?
The IC50 was 79 µM.

What about the IC90 (M. tuberculosis H37Rv [4]) of the same compound?
Its IC90 is 36 ± 1.7 µM.

With `N#Cc1ccc(Oc2ccc3c(c2)COB3O)c(/C=N/O)c1` [AN3438] as the compound, how does the IC50 (M. tuberculosis InhA [2]) read?
Its IC50 is 12 µM.

What about the IC90 (M. tuberculosis H37Rv [4]) of the same compound?
The IC90 was 16 ± 1.2 µM.

Which IC50 (M. tuberculosis InhA [2]) does the source give for `OB1OCc2ccc(Oc3ccc(C(F)(F)F)cc3)cc21` [AN2918] here?
The IC50 was 44 µM.

What about the IC90 (M. tuberculosis H37Rv [4]) of the same compound?
Its IC90 is > 200 µM.

For `CCS(=O)(=O)N1N=Cc2cc(Oc3ccc(C(F)(F)F)cc3/C=N/O)ccc2B1O` [AN12908], which IC50 (M. tuberculosis InhA [2]) is on record?
The IC50 was 2.3 µM.

What about the IC90 (M. tuberculosis H37Rv [4]) of the same compound?
The IC90 was 7 ± 2.6 µM.

And the “cofactor dependence of binding to InhA” value (M. tuberculosis InhA [7])?
Its value is “dependent on NAD^+ for binding”.

What about the Kd (M. tuberculosis InhA [7]; cofactor: NAD^+) of the same compound?
The Kd was 0.847 ± 0.318 µM.

What about the “N (stoichiometry of binding)” value (M. tuberculosis InhA [7]; cofactor: NAD^+) of the same compound?
Its value is 0.49 ± 0.022.

And the “∆H” value (M. tuberculosis InhA [7]; cofactor: NAD^+)?
Its value is −25,010 ± 1,496 cal/mol.

And the “∆S” value (M. tuberculosis InhA [7]; cofactor: NAD^+)?
The value was −56 cal/mol/deg.

What does the source list for `NNC(=O)c1ccncc1` [INH, isoniazid]?
Mean ± SEM Log10 CFU (M. tuberculosis Erdman; lung): 4.6 ± 0.06 Log10 CFU; Mean ± SEM Log10 CFU (M. tuberculosis Erdman; spleen): 2.4 ± 0.15 Log10 CFU; IC90 (M. tuberculosis H37Rv [4]): 0.2 µM
